The target in one test is T1, Keap1 C77S/C434S (Homo sapiens, UniProt Q14145, C434S/C77S).
T1 construct: His (N); made in house; host or cells: E. coli BL21 (DE3)
The test is described as follows: ITC titration of PBA with Keap1-C77S/C434S. Format: binding. How it is done:
The Keap1 was amplified by PCR using a human cDNA library, and was subcloned into the vector pET28-TEV, which contained one tobacco etch virus (TEV) protease cleavage site at the upstream multiple cloning site. The protein was expressed in E. coli BL21 (DE3) cells and incubated at 37 °C until the OD600 value reached 0.6, using 0.2 mM isopropyl β-D-1-thiogalactopyranoside (IPTG) overnight induction at 18 °C. The cells were isolated by centrifugation, resuspended in ice-cold lysis buffer and lysed by cryogenic overpressure cell breaker at 1,200 psi. The lysates were centrifuged for 60 min at 14,000 rpm to obtain the supernatant. Gravity flow purification of Keap1 protein was obtained at room temperature using 1 mL of Ni-NTA and eluted in buffer containing 250 mM imidazole, followed by 1 mL of HiTrap QHP for the second step purification. The final protein was purified and validated by Superdex 200 10/300GL resin.
The mutant plasmid DNA was obtained by PCR. The PCR products were cleaved by DpnI restriction enzymes. The restriction endonuclease-cleaved mixture was subsequently transformed into E. coli DH5α. Colonies were evaluated by colony PCR and sequenced. The mutant plasmid was transformed into E. coli BL21 (DE3) after successful sequencing. The steps for expression and purification of all recombinants were described above.
Isothermal calorimetry (ITC) titration experiments were performed at 25 °C. WT Keap1, Keap1 mutants and PBA were dissolved in binding buffer (40 mM Tris-HCl pH 8.0, 250 mM NaCl). In a typical experiment, 60 μL of PBA (1 mM) was injected 19 times at 2-min intervals from a stirring syringe into the sample cell containing 300 μL of WT protein or mutants (30 μM). The first injection was 0.4 μL of PBA, and the subsequent 18 injections were 2 μL each time. The site-binding models were determined by using MicroCal Origin software.
(In general: In ITC the heat of successive injections is recorded.)

The next test deals with T2, Keap1.
T2 construct: endogenous in cells; host or cells: RAW264.7
The test is described as follows: Pull-down with PBA-Sepharose 4B beads, cell lysate. The following applies: 4 °C, immunoblot, Sepharose 4B beads only as negative control. Format: binding. How it is done: (§1) PBA-Sepharose 4B beads were created by dissolving PBA in coupling buffer (100 mM NaHCO3, pH 8.3, 0.5 M NaCl). After washing with 1 mM HCl medium, Sepharose 4B beads were mixed with PBA coupling buffer and slowly rotated overnight at 4 °C. Excess PBA was washed away with coupling buffer and any remaining active groups were blocked with 0.1 M Tris-HCl buffer (pH 8.0) for 2 h. The medium was then washed with 0.1 M acetate buffer (pH 4.0) containing 0.5 M NaCl followed by a wash with 0.1 M Tris-HCl (pH 8.0) that also contained 0.5 M NaCl. PBA-Sepharose 4B beads were ready for use in the pull-down assay. The RAW264.7 cellular supernatant fraction (600 µg) was incubated with either PBA-Sepharose 4B or Sepharose 4B as a negative control in reaction buffer (50 mM Tris-HCl, pH 7.5, 5 mM EDTA, 150 mM NaCl, 1 mM DTT, 0.01% NP-40, 2 µg/mL of BSA, 0.02 mM PMSF, 1 × protease inhibitor cocktail). After incubation with gentle rocking overnight at 4 °C, the beads were washed five times with wash buffer (50 mM Tris-HCl, pH 7.5, 5 mM EDTA, 150 mM NaCl, 1 mM DTT, 0.01% NP-40, 0.02 mM PMSF) and proteins bound to the beads were analyzed by immunoblotting assay with a Keap1 antibody.
For orientation: Immunoblotting shows a protein as a band on a membrane.

Test [1] relates to recombinant Keap1 mutant proteins. The test is described as follows: Pull-down of recombinant Keap1 mutants with PBA-Sepharose 4B. Format: binding, human. The note with it: cysteine to serine mutants. How it is done: as §1
The mutant plasmid DNA was obtained by PCR. The PCR products were cleaved by DpnI restriction enzymes. […] Colonies were evaluated by colony PCR and sequenced. […]

Test [2] deals with primary mouse cardiomyocytes transfected with C77S and C434S-Keap1. The test is described as follows: OGD/R viability in Keap1-mutant-transfected primary cardiomyocytes. The format is cell-based. The note with it: Cys77S and Cys434S-Keap1 mutant vectors, MTT. How it is done:
Figure 6 PBA suppresses Keap1-mediated ubiquitination of Nrf2 by disrupting the interaction between Cul3 and Keap1. (A and B) PBA suppressed Nrf2 ubiquitination in a Keap1-Cys77 and C434-dependent manner. First, 293T cells were transfected with WT-Keap1 or C77S and C434S-Keap1, Myc-Nrf2, and Ub plasmids for 24 h and treated with 30 μM PBA. The cell lysates were immunoprecipitated using anti-Myc beads, and the ubiquitination level was evaluated using the anti-Ub antibody. (C and D) PBA induced the dissociation of the Nrf2-Keap1 complex. Then, 293T cells were cotransfected with WT-Keap1 and Flag-Nrf2 plasmids for 24 h and treated with 30 μM PBA for 12 h. The cell lysates were immunoprecipitated with the anti-Flag antibody, and the level of Nrf2 was assessed using the anti-Nrf2 antibody. (E and F) PBA disrupted the interaction between Cul3 and Keap1. […] The cell lysates were immunoprecipitated with the anti-Flag antibody, and the level of Cul3 was measured using the anti-Cul3 antibody. #p < 0.05, ##p < 0.01, ###p < 0.001, the control vs DMSO; *p < 0.05,**p < 0.01, ***p < 0.001, PBA or tBHQ vs DMSO. […] Cell viability was measured by MTT assays. #p < 0.05, ###p < 0.001, the control vs OGD/R; **p < 0.01, ***p < 0.001, OGD/R+PBA vs OGD/R.
Cell viability was determined by MTT assays. […] And the solution was measured at the absorbance of 490 nm by a spectrophotometer (Thermo Fisher Scientific, MA, USA). […]

Setting [3] is: ITC, 25 ℃, Keap1 C77S/C434S double mutant.

T1 sequence (Q14145 whole entry C77S/C434S): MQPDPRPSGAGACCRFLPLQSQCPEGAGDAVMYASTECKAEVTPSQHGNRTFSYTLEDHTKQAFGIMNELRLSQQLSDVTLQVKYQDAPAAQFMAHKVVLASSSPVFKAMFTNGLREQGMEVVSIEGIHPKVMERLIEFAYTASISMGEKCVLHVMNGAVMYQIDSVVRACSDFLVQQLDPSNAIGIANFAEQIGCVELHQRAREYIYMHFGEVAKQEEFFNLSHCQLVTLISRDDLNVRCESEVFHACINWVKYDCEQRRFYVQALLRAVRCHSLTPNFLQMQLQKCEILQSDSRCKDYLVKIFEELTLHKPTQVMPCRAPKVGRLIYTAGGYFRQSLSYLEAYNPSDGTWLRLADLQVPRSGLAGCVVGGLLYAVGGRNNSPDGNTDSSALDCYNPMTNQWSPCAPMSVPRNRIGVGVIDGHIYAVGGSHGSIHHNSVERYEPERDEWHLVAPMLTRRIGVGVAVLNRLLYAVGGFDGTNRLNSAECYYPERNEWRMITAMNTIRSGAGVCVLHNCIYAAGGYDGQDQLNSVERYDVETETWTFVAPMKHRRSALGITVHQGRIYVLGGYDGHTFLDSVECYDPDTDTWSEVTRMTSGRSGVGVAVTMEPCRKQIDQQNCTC

A word on the Kd: it is the free concentration of one partner at which half of the binding sites on the other are occupied at equilibrium, for simple one-to-one binding. The low end stands for tighter binding, the high end for weaker binding. Take `C=C(COC(=O)C=Cc1ccc(O)c(O)c1)C(O)COC1OC(CO)C(O)C(O)C1O` (stereo not drawn) [PBA, pubescenoside A]: on Keap1 C77S/C434S (setting [3]), binding was put at a Kd of 38.6 µM, the “T△S” value was 1.11 ± 0.00 kcal/mol, the “△G” value is -6.03 ± 0.00 kcal/mol and the “△H” value was -4.92 ± 0.637 kcal/mol. In addition, the “Kd weaker than that of the WT” value on Keap1 C77S/C434S (double mutant Cys77S/Cys434S vs WT Keap1) was ~ 15 fold. Besides, the “binding of Keap1 to PBA-Sepharose 4B beads (pull-down)” value in the test with Keap1 is “could bind”. In test [1], the “binding of Keap1 mutants of Cys434, Cys77, Cys23 and Cys38 (pull-down)” value is “lost the capacity to bind”; the “binding of other Keap1 mutants (pull-down)” value was “retained their high binding affinity”. For the same compound, in test [2], the “protective effect against OGD/R injury with mutant Keap1” value is given as “blocked the protective effect”.

Values taken from article PMC7738871, “Covalent modification of Keap1 at Cys77 and Cys434 by pubescenoside a suppresses oxidative stress-induced NLRP3 inflammasome activation in myocardial ischemia-reperfusion injury” (Theranostics, 2021).
